This is an account of results in PubChem BioAssay (NCI).

Common to all, as to assay: NCI tumour cell line growth inhibition, 48 h
Test [1] deals with NCI/ADR-RES ovarian.
The test system of test [2] is SNB-75 CNS.
Test [3] has as its system HS 578T breast.
The test system of test [4] is A498 renal.
Test [5] concerns OVCAR-4 ovarian.
The test system of test [6] is KM12 colon.
Test [7] deals with CAKI-1 renal.
Test [8] relates to CCRF-CEM leukemia.
The subject of test [9] is HOP-62 NSCLC.
For test [10], the system named is IGROV1 ovarian.

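Values below derive from 48-hour exposures of cells grown in 96-well plates, with endpoints linearly interpolated between the two concentrations bracketing the appropriate inhibition level. GI50: concentration for 50% inhibition of growth. Definition used: TGI = concentration required for complete inhibition of growth.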 Bounds are passed on as bounds.

`CC(C)Oc1cccc(N2C(CCc3c[nH]c4ccc(Br)cc34)=NS(=O)(=O)c3cnccc32)c1`: the TGI in [1], in [2], in test [3], in test [4], in test [5] and in test [6] was above 100 µM each time. Moreover, the TGI in [7], in test [8] and in test [9] was above 100 µM in each case.

Turning to `Cc1ccc(S(=O)(=O)OCCN(CCOS(=O)(=O)c2ccc(C)cc2)c2ccc(C=O)cc2)cc1`, the TGI in test [1] is above 100 µM; in test [3], above 100 µM; in test [4], 61 µM; in test [5], 44.3 µM; in [10] it was above 100 µM; in test [6], 53 µM. The TGI was 48.8 µM in test [7] and above 100 µM in test [8].

Consider `COc1cccc2c(=O)oc(-c3ccccc3C)nc12`, for which the TGI is above 100 µM in [1]; above 100 µM in test [2]; above 100 µM in [3]; above 100 µM in test [4]; 70.6 µM in test [5]; 96.8 µM in [10]. Besides, the TGI in [6] was above 100 µM; in [7] it was above 100 µM; in test [8], 73 µM; in test [9], 76.3 µM.

With `COc1cc2c(cc1O)NC(=O)[C@@H]1C[C@@H](O)CN1C2=O`, the TGI in test [1], in [2], in test [3], in test [4], in test [5] and in test [10] was above 100 µM each time. Also, the TGI in test [6], in test [7], in test [8] and in [9] was above 100 µM each time.

As to `O=c1c2ccc(Cl)cc2oc2c(CSc3ccccc3)cccc12`, the TGI in test [1] was above 100 µM; in test [2], above 74.5 µM; in test [3], above 100 µM; in [4], above 79.1 µM; in test [5], above 100 µM; in test [10], above 52 µM. The TGI is above 65.3 µM in test [6], above 79.7 µM in test [7], above 100 µM in test [8] and above 100 µM in test [9].

For the compound `COc1cc2c(cc1OC)C1=C(C=O)c3ccc(OC)c(OC)c3C(O)N1CC2` (stereo unspecified), the TGI in test [1] is 79.6 µM; in [2], 38.6 µM; in test [3], above 100 µM; in test [4], 72.5 µM; in test [5], above 100 µM; in test [6], above 100 µM. Further, the TGI in [7], in [8] and in test [9] was above 100 µM each time.

With `OCCN1CCN(c2nc(N3CCCC3)c3nc(Cl)c(NCc4ccccc4)nc3n2)CC1`, the TGI in test [1] came to 26.7 µM; in test [2], 8.67 µM; in test [3], 31 µM; in test [4] it was 25 µM; in test [5], 25.4 µM; in test [10], 23.1 µM. Also, the TGI in [6] was determined as 15.8 µM; in test [7], 23.7 µM; in test [8], 11.7 µM; in test [9], 8.98 µM.

For `O=C(Nc1ccc(-n2cc(-c3ccncc3)c(-c3ccc(O)c(Cl)c3)n2)cc1)Nc1cc(C(F)(F)F)cc(C(F)(F)F)c1`, the GI50 in test [1] was 4.94 µM; in test [2], 2.07 µM; in test [3], 1.94 µM; in test [4], 3.68 µM; in test [5], 2.92 µM; in test [10], 4.61 µM. The GI50 in [6] is 3.3 µM; in test [7], 3.34 µM; in [8] it was 4.06 µM; in test [9], 5.02 µM. Besides, the TGI worked out at 22.5 µM in test [1]; 12.6 µM in test [2]; 7.41 µM in test [3]; 16.3 µM in [4]; 10.7 µM in test [5]; 18.9 µM in test [10]. For the same compound, the TGI came to 11.7 µM in test [6], 12.8 µM in [7], 19.2 µM in [8] and 17.3 µM in test [9].

As to `Clc1[nH]nc2ccccc12`, the TGI in [1], in test [2], in test [3], in [4], in test [5] and in test [10] was above 100 µM each time. For the same compound, the TGI in [6], in [8] and in [9] was above 100 µM throughout.

Turning to `COc1cc2c(cc1O)C(Cc1ccc(OCc3ccccc3)c(OCc3ccccc3)c1)N(C(=O)NCCc1ccccc1)CC2` (stereo unspecified), the TGI in test [1], in test [2], in [3], in [4], in test [5] and in test [10] was above 100 µM throughout. For the same compound, the TGI in [6], in test [7], in test [8] and in [9] was above 100 µM in each case.

On to `CC(=O)O[C@H]1CC[C@@H](OC(C)=O)[C@H]2[C@H](O)[C@H](O)[C@@H]1n1c(=O)n(-c3ccccc3)c(=O)n12`, for which the TGI in test [1], in [3], in test [4], in test [5], in [10] and in [6] was above 100 µM throughout. In addition, the TGI in [7], in test [8] and in test [9] was above 100 µM each time.

Take `NC(=O)CSc1nc2ccccc2c(=O)n1N`: the TGI in test [1], in test [2], in test [3], in test [4], in [5] and in test [10] was above 100 µM each time. Further, the TGI in test [6] and in test [7] was above 100 µM each time.

Take `Cc1nnc(SCc2nc(C#N)c(C#N)nc2CSc2nnc(C)s2)s1`: the TGI was above 92.2 µM in test [1]; 41.1 µM in [2]; above 59.4 µM in [3]; above 66.5 µM in test [4]; 31.5 µM in test [5]; 33.5 µM in test [10]. In addition, the TGI in test [6] stood at 37 µM; in [7] it was 11.6 µM; in [9], 37.8 µM.
